Data published in patent US20130030045A1, “METHOD OF PREVENTING AND TREATING OSTEOPOROSIS” (priority 2011, published 2013).
Like-named read-outs stand apart in the source and are kept apart here.

What was measured:
MBMMφ cells [1] = assay: TRAP activity assay, differentiation of MBMMφ cells induced with RANKL and M-CSF; format: cell-based, mouse; details: for IC50: Mus musculus, 2 days with compound, then 20 ng/ml RANKL and 10 ng/ml M-CSF for 5 days, read-out: IC50, s-TRAP activity (inhibition of differentiation of MBMMφ cells)
Description: In some embodiments of the present invention, preosteoclast cells used are obtained from bone marrow in hind leg bone of C57BL/6J Narl mice, called as MBMMφ cells (mouse bone marrow macrophages), and are cultured in alpha-MEM medium (including 10% FBS and 1× antibiotic-antimycotic solution) and then added with M-CSF (macrophage colony-stimulating factor) and RANKL (receptor for activation of nuclear factor kappa B ligand) for inducing cell differentiation and maturation.
(§1) The cultured medium for cells derived from MBMMφ differentiation is removed, and cells are added with new medium. After incubation for 1 hour, and the activity of secretory type acid phosphatase in the medium is measured. First, 30 μl medium to be measured is taken out and added with […] TRAP assay reagent (0.1 M acetate buffer, 60 mM sodium tartrate and 5 mg/ml pNPP) followed by incubating for 30 minutes at 37° C., then adding 60 μl 0.5N NaOH solution to terminate the reaction and OD value at 405 nm of each specimen being measured.
In an embodiment, different concentrations of flavone (chemical structure as shown in FIG. 2(A)), 6-methoxy flavone (FIG. 2(B)), 7-methoxy flavone (FIG. 2(C)), 6-hydroxy flavone (FIG. 2(D)) and 7-hydroxy flavone (FIG. 2(E)) are respectively added into the cultured medium of MBMMφ cells, which had been cultured in 10 ng/ml M-SCF without treating with flavone components for 5 days, for 2 days. Next, after adding 20 ng/ml RANKL and 10 ng/ml M-CSF to induce cell differentiation for another 5 days, TRAP activity assay is performed.

MC3T3-E1 cells [2] = assay: Alkaline phosphatase (ALP) assay, differentiation of MC3T3-E1 cells; format: cell-based; details: 4 days
Description: In experiments, 10,000 cells/well are cultured with alpha-MEM medium (including 10% FBS and 1× antibiotic-antimycotic solution) for 4 days at 37° C. in 5% CO2 incubator. After adding different concentrations of methoxy flavones or hydroxy flavones to react for 4 days, the cultured medium is removed and 100 μl 4% formaldehyde is added to fix cells for 10 minutes. After washing cells, 30 μl p-nitrophenyl phosphate (pNPP) solution is added to react for 30 minutes at 37° C., and then 30 μl 0.5 N NaOH is added to stop the reaction. Finally, OD value is measured at […] using ELISA reader.
In an embodiment, different concentrations of 6-methoxy flavone and 7-methoxy flavone are respectively added into MC3T3-E1 cells (a kind of preosteoblast cells) in alpha-MEM medium (containing 10% FBS, 1× antibiotic-antimycotic solution, 10 mM β-glycerophsphate, 50 μg/ml VitC, 10^−7 M dexamethasone) for 4 days to induce cell osteogenic differentiation and maturation. Because differentiated MC3T3-E1 cells will express the ALP activity, ALP activity assay is used to know the extent of cell differentiation. FIGS. 5(A) and 5(B) illustrate ALP activities at four different concentrations (1.25 μM, 2.5 μM, 5 μM, 10 μM) of 6-methoxy flavone and 7-methoxy flavone, respectively, in comparison with controls (with only PBS, or without 6-methoxy flavone or 7-methoxy flavone but with equal volume of vehicle, DMSO).
In still another embodiment, different concentrations (0.4 μM, 2 μM, 10 μM, 50 μM) of flavone, 7-methoxy flavone and 6-hydroxy flavone are respectively added into MC3T3-E1 cells in alpha-MEM medium with 10% FBS, 1× antibiotic-antimycotic solution, 10 mM β-glycerophsphate, 50 μg/ml Vitamin C, and 10^−7 M dexamethasone for 4 day incubation to induce cell differentiation and maturation. FIGS. 7(A)-7(C) illustrate ALP activities of MC3T3-E1 cells after exposed to four different concentrations of flavone, 7-methoxy flavone and 6-hydroxy flavone, respectively, in comparison with control (without flavone, 7-methoxy flavone or 6-hydroxy flavone, but with vehicle DMSO).

MC3T3-E1 cells [3] = assay: MTT assay, MC3T3-E1 cell growth; details: 1 day
From the text: In an embodiment, different concentrations of flavone, 6-methoxy flavone, 7-methoxy flavone, 6-hydroxy flavone and 7-hydroxy flavone are respectively added into 3,000 MC3T3-E1 cells per well in the cultured medium for 1 day.

SaOS-2 cells = assay: Calcium staining for calcium deposition (CaP assay) of SaOS-2 cells; format: cell-based, human; details: 10 μM, 7 day; data not shown
[4] = tested on: human mesenchymal stem cells (hMSCs); assay: Calcein fluorescent test for calcium precipitation, osteogenesis of human mesenchymal stem cells; format: cell-based; details: FIG. 10, calcein fluorescent test
From the text: FIGS. 10(A)-10(D) respectively illustrate the effects of 6-methoxy flavone, 7-methoxyl flavone, 7-hydroxy flavone, and 6-hydroxy flavone on the osteogenesis of human mesenchymal stem cells, based on calcein fluorescent test for calcium precipitation.
Moreover, the present invention also measures the effects of methoxy flavones and hydroxyl flavones on human mesenchymal stem cells (hMSCs).

MBMMφ cells [5] = assay: MTT assay, MBMMφ cell growth
Description: (§2) In an embodiment, different concentrations (0 μM, 1 μM, 5 μM, 10 μM, 15 μM, 20 μM, and 25 μM) of 7-methoxy flavone are respectively added into 3,000 MBMMφ cells/well in the cultured medium containing M-CSF for 1 day incubation. Next, MTT reagent is used to detect the OD value of cells so as to determine the growth situation of MBMMφ cells.

RAW 264.7 cells [6] = assay: TRAP activity assay, differentiation of RAW 264.7 cells; format: cell-based, mouse; details: at 8 μM, 16 μM, and 32 μM; compared to control
Description: as §1
In another embodiment, different concentrations of 7-methoxy flavone are respectively added into the cultured medium of RAW 264.7 cells (mouse leukaemic monocyte macrophages, another kind of preosteoclast cells) for 2 days. Next, after adding 20 ng/ml
RANKL and 10 ng/ml M-CSF to induce RAW 264.7 cell differentiation for 3 days, TRAP activity assay is then performed.

RAW 264.7 cells [7] = assay: Toxicity to RAW 264.7 cells; format: cell-based, mouse; details: data not shown
MC3T3-E1 cells [8] = assay: Alizarin Red S stain, calcium deposition of MC3T3-E1 cells; format: cell-based; details: at 5 μM, 10 μM, 20 μM and 40 μM; 20 days
Description: In an embodiment, different concentrations (2.5 μM, 5 μM, 10 μM, 20 μM and 40 μM) of 7-methoxy flavone are respectively added into the cultured medium of MC3T3-E1 cell incubated for 20 days, wherein the cultured medium with 7-methoxy flavone is changed every 4 days. Next, Alizarin Red S stain is used to observe the calcification situation of MC3T3-E1 cells, and OD value at 562 nm is measured for quantitative analysis.

MBMMφ cells [9] = tested on: MBMMφ cells
Description: as §2

[10] = at the concentration of equal to or larger than 10 μM
[11] = at the concentration of equal to or larger than 5 μM

SMILES	IC50 (MBMMφ cells [1])	effect on differentiation of MBMMφ cells (s-TRAP activity) (MBMMφ cells [1]; [10])	effect on differentiation of MC3T3-E1 cells (ALP activity) (MC3T3-E1 cells [2]; at 4 μM and 16 μM, FIG. 6)	effect on differentiation of MC3T3-E1 cells (ALP activity) (MC3T3-E1 cells [2]; at 10 μM and 50 μM, FIG. 7)	growth of MC3T3-E1 cells (MTT, cytotoxicity) (MC3T3-E1 cells [3]; mouse)	calcium deposition of SaOS-2 cells (SaOS-2 cells)	calcium deposition of hMSCs [4]	growth of MBMMφ cells (MTT, cytotoxicity) (MBMMφ cells [5]; not shown)	effect on differentiation of MBMMφ cells (s-TRAP activity) (MBMMφ cells [1]; [11])	effect on differentiation of MC3T3-E1 cells (ALP activity) (MC3T3-E1 cells [2]; at 5 μM and 10 μM, FIG. 5)	effect on differentiation of MC3T3-E1 cells (ALP activity) (MC3T3-E1 cells [2]; at 16 μM, FIG. 6)	growth of MC3T3-E1 cells (MTT, cytotoxicity) (MC3T3-E1 cells [3]; different concentrations, FIG. 8)	effect on differentiation of RAW 264.7 cells (TRAP activity) (RAW 264.7 cells [6])	toxicity to RAW 264.7 cells (RAW 264.7 cells [7])	calcium deposition of MC3T3-E1 cells (Alizarin Red S, OD 562 nm) (MC3T3-E1 cells [8])	growth of MBMMφ cells (MTT, cytotoxicity) (MBMMφ cells [5]; 0-25 μM, 1 day incubation, medium containing M-CSF)	effect on differentiation of MBMMφ cells (s-TRAP activity) (MBMMφ cells [1]; 1 μM, 5 μM, 10 μM, 20 μM, in comparison with control)	effect on differentiation of MC3T3-E1 cells (ALP activity) (MC3T3-E1 cells [2]; 0.25 μM, 1 μM, 4 μM, 16 μM, FIG. 6)	effect on differentiation of MC3T3-E1 cells (ALP activity) (MC3T3-E1 cells [2]; 0.4 μM, 2 μM, 10 μM, 50 μM, FIG. 7)	growth of MBMMφ cells (MTT, cytotoxicity) (MBMMφ cells [9])
O=c1cc(-c2ccccc2)oc2ccc(O)cc12 [6-hydroxy flavone]	7.3 ± 0.2 µM	significantly inhibit the differentiation of MBMMφ cells	significantly stimulate the differentiation of MC3T3-E1 cells	obviously stimulate the differentiation of MC3T3-E1 cells	do not affect the growth of MC3T3-E1 cells	significantly enhance calcium deposition of SaOS-2 cells	does not inhibit calcium deposition even at high concentration	do not influence the growth of MBMMφ cells												
COc1ccc2oc(-c3ccccc3)cc(=O)c2c1 [6-methoxy flavone]	5.4 ± 0.2 µM				do not affect the growth of MC3T3-E1 cells		greatly inhibits calcium deposition of hMSCs	do not influence the growth of MBMMφ cells	manifestly inhibit the differentiation of MBMMφ cells	efficiently enhance the differentiation of MC3T3-E1 cells										
O=c1cc(-c2ccccc2)oc2cc(O)ccc12 [7-hydroxy flavone]	10.9 ± 1.3 µM	significantly inhibit the differentiation of MBMMφ cells				significantly enhance calcium deposition of SaOS-2 cells	inhibit calcium deposition on hMSCs only at high concentration	do not influence the growth of MBMMφ cells			enhance effectively the cell differentiation	do not affect the growth of MC3T3-E1 cells								
COc1ccc2c(=O)cc(-c3ccccc3)oc2c1 [7-methoxy flavone]	7.1 ± 0.6 µM		significantly stimulate the differentiation of MC3T3-E1 cells	obviously stimulate the differentiation of MC3T3-E1 cells	do not affect the growth of MC3T3-E1 cells	significantly enhance calcium deposition of SaOS-2 cells	inhibit calcium deposition on hMSCs only at high concentration		manifestly inhibit the differentiation of MBMMφ cells	efficiently enhance the differentiation of MC3T3-E1 cells			significantly inhibit the differentiation of RAW 264.7 cells	no toxicity to RAW 264.7 cells	effectively enhance calcium deposition of MC3T3-E1 cells	does not affect the growth of MBMMφ cells				
O=c1cc(-c2ccccc2)oc2ccccc12 [flavone, reference compound]	> 20 µM				do not affect the growth of MC3T3-E1 cells												does not have obvious effect	does not stimulate the differentiation of MC3T3-E1 cells	does not significantly stimulate the differentiation of MC3T3-E1 cells	do not influence the growth of MBMMφ cells
